The values that follow are results of earlier work, collected in patent US20050148552A1, “Methods of treating eczema” (priority 2003, published 2005).

The conditions of data set [1]: 250 mg every six hours over a twenty-four hour period.
The conditions of data set [2]: single dose of two 100 mg minocycline HCl tablets or capsules, adult humans.

Structures are written as SMILES. Counter-ions that a name gives are not always drawn.

For `CN(C)[C@@H]1C(O)=C(C(N)=O)C(=O)[C@@]2(O)C(O)=C3C(=O)c4c(O)cccc4[C@@](C)(O)[C@H]3C[C@@H]12` [tetracycline HCl], in data set [1], the peak serum level entry is “approximately 3 μg/ml”.

For the molecule `CN(C)c1ccc(O)c2c1C[C@H]1C[C@H]3[C@H](N(C)C)C(O)=C(C(N)=O)C(=O)[C@@]3(O)C(O)=C1C2=O` [minocycline HCl], the “average minocycline serum level” value in data set [2] is 2.24 µg/mL.
